# Experimental data: US10385019B2, “Inhibitors of EGFR and methods of use thereof” (Dana-Farber Cancer Institute, Inc., priority 2015, dated 2019)
# Like-named read-outs stand apart in the source and are kept apart here.
# Columns and labels:
# Test in all cases: Ba/F3 cell proliferation model
# Assay type in all cases: cell-based, murine
# [1] = target: EGFR T790M/L858R Ba/F3 cell line (Homo sapiens, UniProt P00533, T790M/L858R, cells depend on it); details: for Activity (% inhibition): combined with cetuximab (% cetuximab, 1.0 μM drug concentration with 1.0 μg/mL cetuximab)
# Sequence of EGFR T790M/L858R Ba/F3 cell line (P00533 whole entry T790M/L858R): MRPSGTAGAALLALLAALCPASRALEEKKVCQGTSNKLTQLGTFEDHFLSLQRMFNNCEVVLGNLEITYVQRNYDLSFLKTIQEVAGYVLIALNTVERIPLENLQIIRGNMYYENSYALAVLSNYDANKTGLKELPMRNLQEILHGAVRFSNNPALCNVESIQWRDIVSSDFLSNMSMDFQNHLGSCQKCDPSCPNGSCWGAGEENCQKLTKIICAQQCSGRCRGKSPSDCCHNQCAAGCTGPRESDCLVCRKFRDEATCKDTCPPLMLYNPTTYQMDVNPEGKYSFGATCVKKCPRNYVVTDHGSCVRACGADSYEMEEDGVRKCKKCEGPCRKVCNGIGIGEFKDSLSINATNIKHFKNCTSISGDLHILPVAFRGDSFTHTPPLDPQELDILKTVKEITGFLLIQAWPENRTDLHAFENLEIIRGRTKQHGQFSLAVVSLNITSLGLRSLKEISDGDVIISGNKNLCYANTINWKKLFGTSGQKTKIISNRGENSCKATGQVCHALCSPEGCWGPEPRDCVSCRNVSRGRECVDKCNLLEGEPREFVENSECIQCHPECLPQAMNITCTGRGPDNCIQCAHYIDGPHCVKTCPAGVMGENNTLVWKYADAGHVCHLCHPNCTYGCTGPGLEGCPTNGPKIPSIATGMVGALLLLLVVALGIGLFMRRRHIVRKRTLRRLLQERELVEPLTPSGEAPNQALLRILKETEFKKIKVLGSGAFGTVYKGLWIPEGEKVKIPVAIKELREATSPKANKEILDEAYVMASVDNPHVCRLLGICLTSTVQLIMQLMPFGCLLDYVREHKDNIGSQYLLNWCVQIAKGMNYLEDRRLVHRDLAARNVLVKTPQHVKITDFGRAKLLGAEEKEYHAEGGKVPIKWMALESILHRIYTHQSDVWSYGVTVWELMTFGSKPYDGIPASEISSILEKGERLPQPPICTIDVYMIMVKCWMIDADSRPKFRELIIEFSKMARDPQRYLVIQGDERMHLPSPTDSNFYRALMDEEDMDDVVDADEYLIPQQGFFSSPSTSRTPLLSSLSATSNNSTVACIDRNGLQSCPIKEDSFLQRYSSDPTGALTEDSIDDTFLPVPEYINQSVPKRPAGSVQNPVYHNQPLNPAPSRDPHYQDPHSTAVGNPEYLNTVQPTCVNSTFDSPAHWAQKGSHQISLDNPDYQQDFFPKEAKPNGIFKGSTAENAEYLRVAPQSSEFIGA
# Summary of the method: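 Murine Ba/F3 cells made IL-3-independent by retroviral EGFR L858R/T790M, selected in puromycin (2 μg/ml) and kept in RPMI 1640 with 10% FBS. Cells were exposed to serially diluted compound for 72 h, with growth read by MTS assay in six wells per point and ≥3 repeats. Sigmoidal dose-response non-linear regression gave the values.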
# [2] = target: Del/T790M Ba/F3 cell line (Homo sapiens, UniProt P00533, DEL746-750/T790M, cells depend on it)
# Sequence of Del/T790M Ba/F3 cell line (P00533 with tags, fused parts or gaps DEL746-750/T790M): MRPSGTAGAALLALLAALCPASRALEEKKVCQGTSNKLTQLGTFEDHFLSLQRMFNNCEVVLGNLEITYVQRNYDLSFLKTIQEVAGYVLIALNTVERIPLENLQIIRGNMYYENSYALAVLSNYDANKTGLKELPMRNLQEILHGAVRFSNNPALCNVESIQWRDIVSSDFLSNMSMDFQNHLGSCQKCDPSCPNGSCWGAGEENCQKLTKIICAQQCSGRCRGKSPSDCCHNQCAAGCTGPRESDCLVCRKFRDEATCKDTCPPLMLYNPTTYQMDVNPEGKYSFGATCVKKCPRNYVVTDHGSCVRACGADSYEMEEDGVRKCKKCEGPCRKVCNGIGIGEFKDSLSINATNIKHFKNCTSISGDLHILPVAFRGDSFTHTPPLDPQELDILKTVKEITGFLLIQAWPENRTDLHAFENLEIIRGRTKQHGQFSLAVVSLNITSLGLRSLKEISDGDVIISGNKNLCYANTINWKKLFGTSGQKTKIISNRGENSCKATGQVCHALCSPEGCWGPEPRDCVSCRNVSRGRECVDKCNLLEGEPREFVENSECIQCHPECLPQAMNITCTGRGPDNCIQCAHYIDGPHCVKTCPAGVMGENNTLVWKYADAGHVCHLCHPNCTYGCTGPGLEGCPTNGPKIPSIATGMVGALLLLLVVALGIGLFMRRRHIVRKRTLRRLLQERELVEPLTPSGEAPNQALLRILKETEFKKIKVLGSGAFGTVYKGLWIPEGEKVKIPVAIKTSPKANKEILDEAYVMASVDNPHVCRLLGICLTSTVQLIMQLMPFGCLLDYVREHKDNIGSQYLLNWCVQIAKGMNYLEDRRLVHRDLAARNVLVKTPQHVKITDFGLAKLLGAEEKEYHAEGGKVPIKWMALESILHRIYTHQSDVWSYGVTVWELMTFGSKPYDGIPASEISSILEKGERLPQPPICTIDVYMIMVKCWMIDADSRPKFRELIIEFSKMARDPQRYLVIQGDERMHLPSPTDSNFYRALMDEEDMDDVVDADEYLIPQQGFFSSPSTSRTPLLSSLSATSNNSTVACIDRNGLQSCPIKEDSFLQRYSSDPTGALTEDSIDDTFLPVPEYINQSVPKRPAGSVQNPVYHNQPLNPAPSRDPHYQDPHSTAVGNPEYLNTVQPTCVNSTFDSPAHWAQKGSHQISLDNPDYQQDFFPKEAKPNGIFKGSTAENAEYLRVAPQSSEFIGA
# Text: (§1) The selectivity between wild-type EGFR and EGFR containing one or more mutations as described herein can also be measured using cellular proliferation assays where cell proliferation is dependent on kinase activity. For example, murine Ba/F3 cells transfected with a suitable version of wild-type EGFR (such as VIII; containing a WT EGFR kinase domain), or Ba/F3 cells transfected with L858R/T790M, Del/T790M/L718Q, L858R/T790M/L718Q, L858R/T790M/C797S, Del/T790M/C797S, L858R/T790M/I941R, or Exon 19 deletion/T790M can be used.
# (§2) Cell lines are plated in media. The compounds of the present disclosure are then serially diluted and transferred to the cells. Cell viability is measured via a luminescent readout. Data is analyzed by non-linear regression curve-fitting.
# (§3) The EGFR mutant L858R, Del E746_A750, L858R/T790M, DelE746_A750/T790M, L858R/T790M/C797S and Del/T790M/C797S Ba/F3 cells have been previously described (Zhou, W., Ercan, D., Chen, L., Yun, C. H., Li, D., Capelletti, M., Cortot, A. B., Chirieac, L., Iacob, R. E., Padera, R., et al. “Novel mutant-selective EGFR kinase inhibitors against EGFR T790M,” Nature 462, (2009), 1070-1074). All cell lines were maintained in RPMI 1640 (Cellgro; Mediatech Inc., Herndon, Calif.) supplemented with 10% FBS 100 units/mL penicillin, 100 units/mL streptomycin, and 2 mM glutamine. L858R cells were maintained in ACL-4 media (Invitrogen, Carlsbad, Calif.) supplemented with 5% FBS, 100 units/mL penicillin, 100 units/mL streptomycin, and 2 mM glutamine. The EGFR I941R mutation was introduced via site directed mutagenesis using the Quick Change Site-Directed Mutagenesis kit (Stratagene; La Jolla, Calif.) according to the manufacturer's instructions. All constructs were confirmed by DNA sequencing. The constructs were shuttled into the retroviral vector JP 1540 using the BD Creator™ System (BD Biosciences). Ba/F3 cells were infected with retrovirus and according to standard protocols, as described previously (Zhou et al, Nature 2009). Stable clones were obtained by selection in puromycin (2 μg/ml).
# (§4) Growth and inhibition of growth was assessed by MTS assay and was performed according to previously established methods (Zhou et al., Nature 2009). The MTS assay is a colorimetric method for determining the number of viable cells that is based on the bioreduction of MTS by cells to a formazan product that is soluble in cell culture medium and can be detected spectrophotometrically. Ba/F3 cells of different EGFR genotypes were exposed to treatment for 72 hours and the number of cells used per experiment determined empirically and has been previously established (Zhou et al., Nature 2009). All experimental points were set up in six wells and all experiments were repeated at least three times. […] The curves were fitted using a non-linear regression model with a sigmoidal dose response.
# [3] = tested on: EGFR Parental Ba/F3 cell line; details: Mus musculus, BaF3; compound alone
# Text: as §1, §2, §3, §4
# [4] = compound alone, read-out: L858R/T790M IC50
# [5] = read-out: L858R/T790M Cetuximab IC50, in combination with Cetuximab
# [6] = compound alone, read-out: Del/T790M IC50
# [7] = read-out: Del/T790M Cetuximab IC50, in combination with Cetuximab
smiles,measurement,setting,value
"O=C(Nc1nccs1)[C@@H](c1ccccc1)N1Cc2ccc(-c3ccc4c(c3)OCCO4)cc2C1=O [Compound I-65, (R)-2-(6-(2,3-dihydrobenzo[b] [1,4]dioxin-6-yl)-1-oxoisoindolin-2-yl)-2-phenyl-N-(thiazol-2-yl)acetamide]",Activity (% inhibition),[1],D (a % inhibition of between about 0% to about 25%)
same,GI50,[1]; [4],> 10000 nM
same,GI50,[1]; [5],< 500 nM
same,GI50,[2]; [6],> 10000 nM
same,GI50,[2]; [7],> 10000 nM
same,IC50,[3],> 10000 nM
"O=C(Nc1nccs1)[C@@H](c1ccccc1)N1Cc2ccc(-c3ccc4[nH]ccc4c3)cc2C1=O [Compound I-66, (R)-2-(6-(1H-indol-5-yl)-1-oxoisoindolin-2-yl)-2-phenyl-N-(thiazol-2-yl)acetamide]",Activity (% inhibition),[1],D (a % inhibition of between about 0% to about 25%)
same,GI50,[1]; [4],1000 to 10000 nM
same,GI50,[1]; [5],< 500 nM
same,GI50,[2]; [6],> 10000 nM
same,GI50,[2]; [7],1000 to 10000 nM
same,IC50,[3],> 10000 nM
"O=C(Nc1nccs1)[C@@H](c1ccccc1)N1Cc2ccc(-c3ccc(N4CCNCC4)cc3)cc2C1=O [Compound I-68, (R)-2-(1-oxo-6-(4-(piperazin-1-yl)phenyl)isoindolin-2-yl)-2-phenyl-N-(thiazol-2-yl)acetamide]",Activity (% inhibition),[1],D (a % inhibition of between about 0% to about 25%)
same,GI50,[1]; [4],1000 to 10000 nM
same,GI50,[1]; [5],< 500 nM
same,GI50,[2]; [6],1000 to 10000 nM
same,GI50,[2]; [7],1000 to 10000 nM
same,IC50,[3],1000 to 10000 nM
"CN1CCN(c2ccc(-c3ccc4c(c3)C(=O)N([C@@H](C(=O)Nc3nccs3)c3ccccc3)C4)cc2)CC1 [Compound I-69, (R)-2-(6-(4-(4-methylpiperazin-1-yl)phenyl)-1-oxoisoindolin-2-yl)-2-phenyl-N-(thiazol-2-yl) acetamide]",Activity (% inhibition),[1],D (a % inhibition of between about 0% to about 25%)
same,GI50,[1]; [4],1000 to 10000 nM
same,GI50,[1]; [5],< 500 nM
same,GI50,[2]; [6],1000 to 10000 nM
same,GI50,[2]; [7],1000 to 10000 nM
same,IC50,[3],1000 to 10000 nM
"O=C(NCC(O)CO)c1cc(Br)ccc1N[C@@H](C(=O)Nc1nccs1)c1ccccc1 (stereo partly drawn) [Compound I-111, 5-bromo-N-(2,3-dihydroxypropyl)-2-(((R)-2-oxo-1-phenyl-2-(thiazol-2-ylamino)ethyl)amino)benzamide]",Activity (% inhibition),[1],A (a % inhibition of about 75%)
"N#Cc1ccc(-c2ccc3c(c2)C(=O)N([C@H](C(=O)Nc2nccs2)c2ccccc2)C3)cc1F [Compound I-114, (S)-2-(6-(4-cyano-3-fluorophenyl)-1-oxoisoindolin-2-yl)-2-phenyl-N-(thiazol-2-yl)acetamide]",Activity (% inhibition),[1],B (a % inhibition of between about 50% to about 75%)
"C[C@H](C(=O)Nc1nccs1)N1Cc2ccc(-c3ccc4[nH]ccc4c3)cc2C1=O [Compound I-116, (R)-2-(6-(1H-indol-5-yl)-1-oxoisoindolin-2-yl)-N-(thiazol-2-yl)propanamide]",Activity (% inhibition),[1],A (a % inhibition of about 75%)
"C[C@H](C(=O)Nc1nccs1)N1Cc2ccc(-c3ccc(N4CCN(C(=O)OC(C)(C)C)CC4)cc3)cc2C1=O [Compound I-117, tert-butyl (R)-4-(4-(3-oxo-2-(1-oxo-1-(thiazol-2-ylamino)propan-2-yl)isoindolin-5-yl)phenyl)piperazine-1-carboxylate]",Activity (% inhibition),[1],A (a % inhibition of about 75%)
"C[C@H](C(=O)Nc1nccs1)N1Cc2ccc(-c3ccc(N4CCNCC4)cc3)cc2C1=O [Compound I-118, (R)-2-(1-oxo-6-(4-(piperazin-1-yl)phenyl)isoindolin-2-yl)-N-(thiazol-2-yl)propanamide]",Activity (% inhibition),[1],A (a % inhibition of about 75%)
"O=C(Nc1nccs1)C(c1ccccn1)N1Cc2ccc(-c3ccc4[nH]ccc4c3)cc2C1=O (stereo not shown) [Compound I-123, 2-(6-(1H-indol-5-yl)-1-oxoisoindolin-2-yl)-2-(pyridin-2-yl)-N-(thiazol-2-yl)acetamide]",Activity (% inhibition),[1],D (a % inhibition of between about 0% to about 25%)
"O=C(Nc1nccs1)C(c1ccccn1)N1Cc2ccc(-c3ccc(N4CCNCC4)cc3)cc2C1=O (stereo not shown) [Compound I-124, 2-(1-oxo-6-(4-(piperazin-1-yl)phenyl)isoindolin-2-yl)-2-(pyridin-2-yl)-N-(thiazol-2-yl)acetamide]",Activity (% inhibition),[1],D (a % inhibition of between about 0% to about 25%)
"O=C(Nc1nccs1)C(c1cccc(F)c1)N1Cc2ccc(-c3ccc(CN4CCNCC4)cc3)cc2C1=O (stereo not shown) [Compound I-125, 2-(3-fluorophenyl)-2-(1-oxo-6-(4-(piperazin-1-ylmethyl)phenyl)isoindolin-2-yl)-N-(thiazol-2-yl)acetamide]",Activity (% inhibition),[1],D (a % inhibition of between about 0% to about 25%)
"O=C(Nc1nccs1)[C@@H](c1cc(F)ccc1O)N1Cc2ccc(-c3ccc(N4CCNCC4)cc3)cc2C1=O [Compound I-126, (R)-2-(5-fluoro-2-hydroxyphenyl)-2-(1-oxo-6-(4-(piperazin-1-yl)phenyl)isoindolin-2-yl)-N-(thiazol-2-yl)acetamide]",Activity (% inhibition),[1],D (a % inhibition of between about 0% to about 25%)
same,GI50,[1]; [4],500 to 1000 nM
same,GI50,[1]; [5],< 500 nM
"O=C(Nc1nncs1)[C@@H](c1ccccc1)N1Cc2ccc(-c3ccc4[nH]ccc4c3)cc2C1=O [Compound I-127, (R)-2-(6-(1H-indol-5-yl)-1-oxoisoindolin-2-yl)-2-phenyl-N-(1,3,4-thiadiazol-2-yl)acetamide]",Activity (% inhibition),[1],A (a % inhibition of about 75%)
"O=C(Nc1cnsc1)[C@@H](c1ccccc1)N1Cc2ccc(-c3ccc4[nH]ccc4c3)cc2C1=O [Compound I-128, (R)-2-(6-(1H-indol-5-yl)-1-oxoisoindolin-2-yl)-N-(isothiazol-4-yl)-2-phenylacetamide]",Activity (% inhibition),[1],A (a % inhibition of about 75%)
"O=C(Nc1ncco1)[C@@H](c1ccccc1)N1Cc2ccc(-c3ccc4[nH]ccc4c3)cc2C1=O [Compound I-129, (R)-2-(6-(1H-indol-5-yl)-1-oxoisoindolin-2-yl)-N-(oxazol-2-yl)-2-phenylacetamide]",Activity (% inhibition),[1],B (a % inhibition of between about 50% to about 75%)
"O=C(Nc1cnoc1)[C@@H](c1ccccc1)N1Cc2ccc(-c3ccc4[nH]ccc4c3)cc2C1=O [Compound I-130, (R)-2-(6-(1H-indol-5-yl)-1-oxoisoindolin-2-yl)-N-(isoxazol-4-yl)-2-phenylacetamide]",Activity (% inhibition),[1],C (a % inhibition of between about 25% to about 50%)
"Cc1csc(NC(=O)[C@@H](c2ccccc2)N2Cc3ccc(-c4ccc5[nH]ccc5c4)cc3C2=O)n1 [Compound I-131, (R)-2-(6-(1H-indol-5-yl)-1-oxoisoindolin-2-yl)-N-(4-methylthiazol-2-yl)-2-phenylacetamide]",Activity (% inhibition),[1],A (a % inhibition of about 75%)
"O=C(Nc1nc(C(F)(F)F)cs1)[C@@H](c1ccccc1)N1Cc2ccc(-c3ccc4[nH]ccc4c3)cc2C1=O [Compound I-132, (R)-2-(6-(1H-indol-5-yl)-1-oxoisoindolin-2-yl)-2-phenyl-N-(4-(trifluoromethyl)thiazol-2-yl)acetamide]",Activity (% inhibition),[1],A (a % inhibition of about 75%)
"O=C(Nc1ncc[nH]1)[C@@H](c1ccccc1)N1Cc2ccc(-c3ccc4[nH]ccc4c3)cc2C1=O [Compound I-133, (R)-2-(6-(1H-indol-5-yl)-1-oxoisoindolin-2-yl)-N-(1H-imidazol-2-yl)-2-phenylacetamide]",Activity (% inhibition),[1],D (a % inhibition of between about 0% to about 25%)
"O=C(Nc1cncnc1)[C@@H](c1ccccc1)N1Cc2ccc(-c3ccc4[nH]ccc4c3)cc2C1=O [Compound I-134, (R)-2-(6-(1H-indol-5-yl)-1-oxoisoindolin-2-yl)-2-phenyl-N-(pyrimidin-5-yl)acetamide]",Activity (% inhibition),[1],A (a % inhibition of about 75%)
